Tests used:
[1] = molecular target: T1, RORγt ligand-binding domain (RORγt-LBD) (Homo sapiens, UniProt P51449); experiment: Time-resolved FRET (TR-FRET) RORγt coactivator assay (RIP140 peptide displacement); type: biochemical; settings: ligand-dependent coactivator-RORγt binding
T1 construct: 20 nM recombinantly expressed RORγ-LBD fused to GST
T1 sequence (P51449 269-508 limits assumed): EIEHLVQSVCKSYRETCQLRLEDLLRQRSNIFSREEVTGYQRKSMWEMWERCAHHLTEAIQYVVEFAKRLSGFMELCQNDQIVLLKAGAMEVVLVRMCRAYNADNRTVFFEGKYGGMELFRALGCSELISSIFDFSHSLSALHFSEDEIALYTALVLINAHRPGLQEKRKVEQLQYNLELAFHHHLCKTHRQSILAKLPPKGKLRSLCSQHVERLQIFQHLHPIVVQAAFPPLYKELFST
Outline: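 GST-tagged RORγt-LBD (20 nM) with 30 nM biotinylated RIP140 peptide, 1 nM streptavidin-terbium and 20 nM d2-anti-GST in CHAPS buffer with DTT, EDTA, BSA; 1% DMSO. Compounds 0.3 nM–30 μM, 2 h dark, room temperature. Coactivator displacement lowers TR-FRET signal; IC50 (μM) and Emax (%) derived.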

[2] = molecular target: T2, human RORγt (Homo sapiens, UniProt P51449); experiment: IL-17 secretion from EL4 murine lymphoma overexpressing human RORγt; type: cell-based; set-up: V5-His (named only through the vector pcDNA3.1D/V5-His-TOPO); expressed in transfected cells; settings: IL-17 secretion inhibition in human RORγt-transfected EL4 Tcells, PMA/ionomycin stimulation
T2 sequence (P51449 1-497 isoform P51449-2): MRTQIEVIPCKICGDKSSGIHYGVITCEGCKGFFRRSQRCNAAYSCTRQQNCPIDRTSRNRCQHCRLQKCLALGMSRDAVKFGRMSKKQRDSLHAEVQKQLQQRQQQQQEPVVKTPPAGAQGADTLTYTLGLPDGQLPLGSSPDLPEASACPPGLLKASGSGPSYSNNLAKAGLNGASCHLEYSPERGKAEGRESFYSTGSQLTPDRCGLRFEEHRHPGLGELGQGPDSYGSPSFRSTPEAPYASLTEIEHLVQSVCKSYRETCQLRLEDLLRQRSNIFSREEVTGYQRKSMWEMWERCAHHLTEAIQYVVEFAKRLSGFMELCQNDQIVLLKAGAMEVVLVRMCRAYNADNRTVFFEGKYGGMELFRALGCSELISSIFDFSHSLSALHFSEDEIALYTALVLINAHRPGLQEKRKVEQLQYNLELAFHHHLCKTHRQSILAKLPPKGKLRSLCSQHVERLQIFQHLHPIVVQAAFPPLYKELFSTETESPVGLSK
Protocol: Murine EL-4 lymphoma cell line overexpressing human RORγt was used in this functional assay to assess compound ability to inhibit IL-17 cytokine secretion.
EL-4 cells are maintained in a standard culture medium RPMI supplemented with 10% fetal calf serum, 1% sodium pyruvate, 1% essential amino acids and 1% antibiotics at 37° C. in a humidified atmosphere of 5% CO2 and 95% air. Culture medium was changed every 2 days. EL4 cells were transfected with a plasmid encoding hRORγt (sequence identical to published sequence NM 001001523). […] Briefly, 1 μg of DNA/1 million cells was served to transfect EL-4 cells. Cell/DNA suspension was transferred into certified cuvette and the electroporation of RORγt plasmid was carried out using appropriate Nucleofector® program.
Cells were seeded in 96 well plates at a density of 150000 cells/well then treated with compounds of this invention at indicated concentrations and incubated for 24 hours at 37° C. in a humidified atmosphere of 5% CO2 and 95% air. EL-4 cells were pretreated with test compounds (RORγ modulators) and stimulated with PMA (10 ng/mL) and ionomycin (1 μM final concentration) in the presence of test compound concentrations for additional 24 h at 37° C. in a humidified atmosphere of 5% CO2 and 95% air. Subsequently, supernatants were collected (after centrifugation at 300 g for 10 minutes) to determine the concentrations of IL-17 by HTRF (CisBio, France) or ELISA (R&D Systems Europe) according to the manufacturer's protocols.

[3] = molecular target: T2, human RORγt; experiment: RORE Luciferase/RORγt transactivation assay (IL-17 promoter luciferase reporter in COS-7 cells); type: cell-based; set-up: V5-His (named only through the vector pcDNA3.1D/V5-His-TOPO); expressed in transfected cells; host or cells: COS-7 (monkey kidney); settings: RORγt activity inhibition, luciferase activity in transfected COS-7 cells, 20 h
Outline: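 COS-7 cells co-transfected with human RORγt and luciferase reporter driven by 4.3 kb IL-17 promoter with CNS enhancer, seeded in serum-free, phenol red-free DMEM. Compounds added at 0.3% DMSO final; luciferase read by Steady-Glo luminescence. IC50 (μM) and Emax (%) reported.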

[4] = system: multiple sclerosis model; settings: administered by injection; cited from earlier work
[5] = system: psoriasis model; settings: administered by injection; cited from earlier work
[6] = system: patients with moderate to severe psoriasis; settings: cited from earlier work
[7] = relative to placebo, patients with moderate to severe psoriasis

Row | Compound | IC50 [1] [nM] | IC50 [2] [nM] | IC50 [3] [nM] | also measured
1 | Cc1ccc(C(NC(=O)C2(c3ccc(N4CCS(=O)(=O)CC4)cc3)CC2)c2ccc(C)o2)c(C)c1 (stereo not drawn) [Cpd. 31, N-[(2,4-dimethylphenyl)(5-methylfuran-2-yl)methyl]-1-[4-(1,1-dioxo-1-thiomorpholin-4-yl)phenyl]cyclopropane-1-carboxamide] | < 1000 | < 1000 | < 100 | –
2 | Cc1ccc(C(NC(=O)C2(c3ccc(N4CCS(=O)(=O)CC4)cc3)CC2)c2ccc(C)o2)c(N2CCCCC2)c1 (stereo not drawn) [Cpd. 32, 1-[4-(1,1-dioxo-1-thiomorpholin-4-yl)phenyl]-N-{[4-methyl-2-(piperidin-1-yl)phenyl](5-methylfuran-2-yl)methyl}cyclopropane-1-carboxamide] | 100 to 1000 | < 1000 | < 100 | –
3 | Cc1ccc(C(NC(=O)Cc2cnc(N3CCS(=O)(=O)CC3)nc2C)c2ccc(C)o2)c(N2CCCCC2)c1 (stereo not drawn) [Cpd. 38, 2-[2-(1,1-dioxo-1-thiomorpholin-4-yl)-4-methylpyrimidin-5-yl]-N-{[4-methyl-2-(piperidin-1-yl)phenyl](5-methylfuran-2-yl)methyl}acetamide] | < 1000 | < 1000 | < 100 | –
4 | Cc1ccc(C(NC(=O)Cc2ccc(O)c(N3CCS(=O)(=O)CC3)c2)c2ccc(C)o2)c(N2CCCCC2)c1 (stereo not drawn) [Cpd. 39, 2-[3-(1,1-dioxo-1-thiomorpholin-4-yl)-4-hydroxyphenyl]-N-{[4-methyl-2-(piperidin-1-yl)phenyl](5-methylfuran-2-yl)methyl}acetamide] | < 1000 | < 1000 | < 100 | –
5 | COc1ccc(C(NC(=O)C2(c3ccc(N4CCS(=O)(=O)CC4)cc3)CC2)c2ccc(C)o2)c(N2CCCCCC2)c1 (stereo not drawn) [Cpd. 46, N-{[2-(azepan-1-yl)-4-methoxyphenyl](5-methylfuran-2-yl)methyl}-1-[4-(1,1-dioxo-1-thiomorpholin-4-yl)phenyl]cyclopropane-1-carboxamide] | 100 to 1000 | < 1000 | < 100 | –
6 | Cc1ccc(C(NC(=O)C2(c3cnc(N4CCS(=O)(=O)CC4)nc3)CC2)c2ccc(C)o2)c(C)c1 (stereo not drawn) [Cpd. 48, N-[(2,4-dimethylphenyl)(5-methylfuran-2-yl)methyl]-1-[2-(1,1-dioxo-1-thiomorpholin-4-yl)pyrimidin-5-yl]cyclopropane-1-carboxamide] | < 1000 | < 1000 | < 100 | –
7 | Cc1ccc(C(NC(=O)C2(c3cnc(N4CCS(=O)(=O)CC4)nc3)CC2)c2ccc(C)o2)c(Cl)c1 (stereo not drawn) [Cpd. 52, N-[(2-chloro-4-methylphenyl)(5-methylfuran-2-yl)methyl]-1-[2-(1,1-dioxo-1-thiomorpholin-4-yl)pyrimidin-5-yl]cyclopropane-1-carboxamide] | < 1000 | 100 to 1000 | 1000 to 10000 | –
8 | Cc1ccc(C(NC(=O)C2(c3cnc(N4CCS(=O)(=O)CC4)nc3)CC2)c2ccc(Cl)cc2C)o1 (stereo not drawn) [Cpd. 53, N-[(4-chloro-2-methylphenyl)(5-methylfuran-2-yl)methyl]-1-[2-(1,1-dioxo-1-thiomorpholin-4-yl)pyrimidin-5-yl]cyclopropane-1-carboxamide] | < 1000 | 100 to 1000 | < 100 | –
9 | Cc1ccc(C(NC(=O)C2(c3cnc(N4CCS(=O)(=O)CC4)nc3)CC2)c2ccc(Cl)cc2Cl)o1 (stereo not drawn) [Cpd. 54, N-[(2,4-dichlorophenyl)(5-methylfuran-2-yl)methyl]-1-[2-(1,1-dioxo-1-thiomorpholin-4-yl)pyrimidin-5-yl]cyclopropane-1-carboxamide] | < 1000 | 100 to 1000 | 100 to 1000 | –
10 | CC(C)CC(NC(=O)C1(c2ccc(N3CCS(=O)(=O)CC3)cc2)CC1)c1ccccc1N1CCCCC1 (stereo not drawn) [Cpd. 59, 1-[4-(1,1-dioxo-1-thiomorpholin-4-yl)phenyl]-N-[3-methyl-1-[2-(piperidin-1-yl)phenyl]butyl]cyclopropane-1-carboxamide] | 100 to 1000 | 100 to 1000 | 1000 to 10000 | –
11 | Cc1ccc(C(NC(=O)C2(c3ccc(N4CCS(=O)(=O)CC4)cc3)CC2)c2ccccc2N2CCCCC2)o1 (stereo not drawn) [Cpd. 60, 1-[4-(1,1-dioxo-1-thiomorpholin-4-yl)phenyl]-N-[(5-methylfuran-2-yl)[2-(piperidin-1-yl)phenyl]methyl]cyclopropane-1-carboxamide] | < 1000 | < 1000 | 100 to 1000 | –
12 | Cc1ccc(C(NC(=O)C2(c3ccc(N4CCS(=O)(=O)CC4)cc3)CC2)c2ccc(Cl)o2)c(C)c1 (stereo not drawn) [Cpd. 66, N-[(5-chlorofuran-2-yl)(2,4-dimethylphenyl)methyl]-1-[4-(1,1-dioxo-1-thiomorpholin-4-yl)phenyl]cyclopropane-1-carboxamide] | < 1000 | < 1000 | < 100 | –
13 | Cc1ccc(C(NC(=O)C2(c3ccc(N4CCS(=O)(=O)CC4)c(C)n3)CC2)c2ccc(C)o2)c(C)c1 (stereo not drawn) [Cpd. 71, N-[(2,4-dimethylphenyl)(5-methylfuran-2-yl)methyl]-1-[5-(1,1-dioxo-1-thiomorpholin-4-yl)-6-methylpyridin-2-yl]cyclopropane-1-carboxamide] | < 1000 | 100 to 1000 | < 100 | –
14 | CC(=O)Nc1nc(C)c(S(=O)(=O)Nc2ccc(C(O)(C(F)(F)F)C(F)(F)F)cc2)s1 [SR1001] | – | – | – | efficacy in multiple sclerosis model [4]: efficacious
15 | Cc1ccc([C@@H](NC(=O)Cc2ccc3oc([C@@H](O)c4c(C)noc4C)cc3c2)c2ccccc2)c(C)c1 [TMP778] | – | – | – | efficacy in psoriasis model [5]: efficacious
16 | CCS(=O)(=O)c1ccc(CNC(=O)c2cnc3c(c2)CN(C[C@H]2CC[C@H](C(F)(F)F)CC2)[C@H]3C(C)C)nc1 [VTP-43742] | – | – | – | reduction in the Psoriasis Area Severity Index (PASI) score relative to placebo ([6]; 350 mg dose group): 24%; placebo-adjusted PASI score reduction ([6]; 700 mg dose group): 30%; Psoriasis Area Severity Index (PASI) score [6, 7]: reduced; plasma IL-17 levels [6, 7]: reduced

From patent US11077115B2, “Rorgamma modulators and uses thereof” (Genfit, priority 2017, dated 2021)
